Among the data in ChEMBL document CHEMBL2146378, “Curcumin is an inhibitor of calcium/calmodulin dependent protein kinase II” (Bioorg Med Chem, 2012) are IC50 values, retold here.

Assay [1] is described as follows: Inhibition of Albino Wistar rat CaMK2 in postsynaptic density fraction using GST-NR2A as substrate incubated for 1 min prior to substrate addition measured after 1 min in presence of EGTA.
Assay [2] is described as follows: Inhibition of Albino Wistar rat CaMK2 in brain cytosolic fraction using GST-NR2A as substrate incubated for 1 min prior to substrate addition measured after 1 min in presence of EGTA. It counts as tissue-based.
The nature of assay [3]: Inhibition of Albino Wistar rat CaMK2 autophosphorylation at Thr286 in postsynaptic density fraction using [gamma32P]ATP incubated for 30 secs prior to ATP addition measured after 30 secs.
A short description of assay [4]: Inhibition of Albino Wistar rat CaMK2 in brain cytosolic fraction using GST-NR2A as substrate incubated for 1 min prior to substrate addition measured after 1 min. It counts as tissue-based.
The target in assay [5] is T1, Calcium/calmodulin-dependent protein kinase type II subunit alpha (Homo sapiens, UniProt Q9UQM7). In words: Inhibition of autophosphorylated alphaCaMK2 using GST-NR2A as substrate incubated for 1 min prior to substrate addition measured after 1 min in presence of EGTA.
The target of assay [6] is T1, Calcium/calmodulin-dependent protein kinase type II subunit alpha. Description: Inhibition of alphaCaMK2 autophosphorylation at Thr286 using [gamma32P]ATP incubated for 30 secs prior to ATP addition measured after 30 secs.
Assay [7] in a line: Inhibition of Albino Wistar rat CaMK2 in postsynaptic density fraction using GST-NR2A as substrate incubated for 1 min prior to substrate addition measured after 1 min.
In assay [8] the target is T1, Calcium/calmodulin-dependent protein kinase type II subunit alpha. In words: Inhibition of autophosphorylated alphaCaMK2 using GST-NR2A as substrate incubated for 1 min prior to substrate addition measured after 1 min.
The target is the same in assay [9]. In words: Inhibition of alphaCaMK2 using GST-NR2A as substrate incubated for 1 min prior to substrate addition measured after 1 min.
The nature of assay [10]: Inhibition of Albino Wistar rat CaMK2 autophosphorylation at Thr286 in brain cytosolic fraction using [gamma32P]ATP incubated for 30 secs prior to ATP addition measured after 30 secs. It counts as tissue-based.
Assay [11] has as its target Calcium/calmodulin-dependent protein kinase type II subunit alpha (Homo sapiens, UniProt Q9UQM7, T286D). In words: Inhibition of alphaCaMK2 T286D mutant using GST-NR2A as substrate incubated for 1 min prior to substrate addition measured after 1 min in presence of EGTA.

T1 sequence (Q9UQM7 whole entry): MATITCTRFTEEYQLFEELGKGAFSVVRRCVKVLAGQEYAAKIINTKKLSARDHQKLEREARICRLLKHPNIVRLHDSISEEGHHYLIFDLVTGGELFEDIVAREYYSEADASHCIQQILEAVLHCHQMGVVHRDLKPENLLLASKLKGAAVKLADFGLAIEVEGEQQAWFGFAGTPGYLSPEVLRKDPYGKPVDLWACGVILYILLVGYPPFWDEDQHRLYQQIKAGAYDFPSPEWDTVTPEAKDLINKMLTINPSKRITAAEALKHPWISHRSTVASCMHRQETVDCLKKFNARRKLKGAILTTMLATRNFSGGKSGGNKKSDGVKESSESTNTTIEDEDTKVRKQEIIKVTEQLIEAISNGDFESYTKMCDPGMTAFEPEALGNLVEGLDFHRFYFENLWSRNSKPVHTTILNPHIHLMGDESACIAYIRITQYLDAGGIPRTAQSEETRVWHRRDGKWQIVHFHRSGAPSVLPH
Calcium/calmodulin-dependent protein kinase type II subunit alpha (Homo sapiens, UniProt Q9UQM7, T286D), sequence (Q9UQM7 whole entry T286D): as the sequence (Q9UQM7 whole entry) above, with T286D counted along it

By IC50 is commonly meant the concentration needed to halve the response being measured. As for `COc1cc(/C=C/c2cc(/C=C/c3ccc(O)c(OC)c3)on2)ccc1O`, the IC50 in [1] came out at 18.9 µM; in [2], 13.7 µM; in [3] it was 22.8 µM; in assay [4], 28.9 µM; in assay [5] it was 0.68 µM; in assay [6] it was 18 µM. For the same molecule, the IC50 in assay [7] came out at 22.9 µM; in assay [8], 24.4 µM; in assay [9], 11.4 µM; in assay [10], 17.1 µM.

For `COc1cc(/C=C/c2cc(/C=C/c3ccc(O)c(OC)c3)n(-c3ccccc3)n2)ccc1O`, the IC50 in assay [1] is 62 µM; in assay [2], 96 µM; in [3] it was 68 µM; in assay [4] it was 94 µM; in assay [5] it was 54 µM; in assay [6] it was 111 µM. The IC50 was determined as 103 µM in assay [7], 79 µM in assay [8], 37 µM in assay [9] and 80 µM in [10].

Regarding `COc1cc(/C=C/C(=O)CC(=O)/C=C/c2ccc(O)c(OC)c2)ccc1O` (stereo in doubt) [CURCUMIN], the IC50 is 33 µM in assay [1]; 64 µM in assay [2]; 69 µM in [3]; 112 µM in assay [4]; 34 µM in assay [5]; 33 µM in assay [6]. Also, the IC50 was determined as 37 µM in [11]; 80 µM in [7]; 45 µM in assay [8]; 21 µM in assay [9]; 143 µM in [10].

With `COc1cc(/C=C/C(=O)CC(=O)/C=C/c2ccc(O)c(OC)c2)ccc1O` (stereo in doubt; 1) [CURCUMIN], in assay [9], the IC50 was found to be 13 µM.

As for `O=C(/C=C/c1ccc(O)cc1)CC(=O)/C=C/c1ccc(O)cc1` [BISDEMETHOXYCURCUMIN], in [9], the IC50 stood at 37 µM.

On to `COc1cc(/C=C/c2cc(/C=C/c3ccc(O)c(OC)c3)[nH]n2)ccc1O` [CURCUMIN PYRAZOLE], for which the IC50 in [1] was 0.34 µM; in [2], 0.44 µM; in assay [3], 7.58 µM; in assay [4], 4.4 µM; in [5] it was 0.29 µM; in assay [6], 6.5 µM. Besides, the IC50 in [7] was 3.6 µM; in assay [8], 6.3 µM; in assay [9], 1.49 µM; in assay [10] it was 16.3 µM.

`COc1cc(/C=C/C(O)=C/C(=O)/C=C/c2ccc(O)cc2)ccc1O` [DEMETHOXYCURCUMIN]: the IC50 in [9] turned out to be 24 µM.
